This is an account of results in patent US20250367231A1, “MULTIFUNCTIONAL BIOADHESIVE DESIGNED WITH CHEMICAL FUNCTIONALITY INDUCED SUTURED BIOLOGICAL BUILDING BLOCKS” (The Regents of the University of California, priority 2022, published 2025).

Each structure is given as a SMILES string.

The conditions of the data set: ambient conditions; for time to change in color (self-oxidation of catechol moieties): aqueous solution. From the text: Dopamine (Dopa), a naturally derived neurotransmitter molecule^[4], also resembles with the key moiety in mussel foot proteins (catechol)^[11] and has been intensely utilized to develop adhesive biomaterials with diverse clinical importance^[12]. In view of the biological relevance of multifunctional catecholic moieties, herein, Dopa skeleton was chemically modified with a nitro-group to modulate the electronic properties of the aromatic ring^[13] (FIG. 1a). To use the nitro incorporated dopamine (nDopa) moiety for designing functional biomaterials, it was further covalently conjugated with a methacrylate group through an amide linkage (FIG. 1a).

Regarding `C=C(C)C(=O)NCCc1ccc(O)c(O)c1` [MAD, methacrylated dopamine], the “time to change in color (self-oxidation of catechol moieties)” value turned out to be 24 h.

Consider `NCCc1ccc(O)c(O)c1` [Dopa, dopamine], for which the “time to change in color (self-oxidation of catechol moieties)” value was determined as 1 h.

`C=C(C)C(=O)NCCc1cc(O)c(O)cc1[N+](=O)[O-]` [nMAD, methacrylated nitro-dopamine] yielded a time without self-oxidation above 7 days.
